These results are taken from patent publication US20230118142A1, “AGENTS FOR USE IN THE TREATMENT OF TISSUE DAMAGE” (UCL BUSINESS LTD, priority 2020, published 2023).

As usually defined, the IC50 is the concentration that gives 50% inhibition.

Series [1] can be described thus: In vivo clearance of ligand. Conditions: male, C57BL/6, mouse, plasma, 0.5 mg; mice, intravenous; read-out: plasma t1/2 of ligand. On the procedure:
(i) Ligand (0.5 mg/animal) dissolved in PBS or saline (200 μl) was injected intravenously into the tail vein of six male; 23-27 week old wild-type C57BL/6 mice. Up to two blood samples plus a terminal sample per mouse were collected at each time point up to 180 minutes.
(ii) Serum was prepared and ˜200 ng of internal standard (either ^2H4-BPC6 or BPC9) added. Serum proteins were precipitated with 4 volumes of either ice cold methanol or acetonitrile. The supernatant was dried under vacuum and re-dissolved in 0.1% v/v aqueous formic acid. (iii) Samples were chromatographed on a Phenomenex Aqua column using a gradient of 0.1% v/v formic acid-60% v/v acetonitrile in formic acid, and the eluate passed into the positive ion source of a Quattro II triple quadrupole mass spectrometer. The MRM transitions used were m/z 449.3→390.2 and 453.→394.2 (BPC6) and m/z 477.3→418.3, […] (BPC8).
(iv) Ligand concentrations were measured against an extracted standard curve and were plotted using Sigmaplot (v14) and fitted to a 2-parameter exponential decay.

Series [2] deals with T1, CRP (Homo sapiens, UniProt P02741).
T1 sequence (P02741 19-224): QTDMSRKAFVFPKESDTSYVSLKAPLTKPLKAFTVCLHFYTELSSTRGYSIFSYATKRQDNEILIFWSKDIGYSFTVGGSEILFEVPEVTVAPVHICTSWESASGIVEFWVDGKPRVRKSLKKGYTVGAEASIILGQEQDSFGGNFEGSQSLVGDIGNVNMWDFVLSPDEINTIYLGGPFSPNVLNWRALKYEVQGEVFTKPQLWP
Description: In vivo clearance of CRP/ligand complexes generated in vivo in mice. Also on record: The final concentrations were 0.73 μM native pentameric CRP; from tissue. Conditions: i.v. bolus 18 h after s.c. CRP (1 mg). As for the experimental part: (i) Two groups of 8 wild-type C57BL/6 mice (male; 23-27 weeks old) were used: group 1 (control) and group 2 (treated).
(ii) Both groups of animals were given 200 μl of human CRP (5 mg/ml in azide-free TC buffer) subcutaneously on day 1.
(iii) On day 2 (+18 h), control animals were given a 200 μl intravenous bolus of TC buffer. Treated animals were given a 200 μl iv bolus of ligand (prepared at 5 mg/ml in TC buffer).
(iv) One timed blood sample and a terminal blood sample were collected from each mouse into heparinised tubes and weighed. This generated data in quadruplicate at 4 time points, normally 30, 60, 120 and 360 minutes.
(v) ^125I radiolabel was measured (Perkin Elmer Wizard; protocol #1) in whole blood to quantify total CRP. In some cases, electroimmunoassay as above was also used to determine total CRP concentration.
(vi) Plasma was prepared and free CRP determined by Roche immunoassay.
Subcutaneous injection of human CRP provided circulating CRP concentrations with which to test for effects of our ligands in vivo. (Table 4).

Series [3] has as its target T1, CRP. Description: Size exclusion chromatography of CRP/ligand cross linking. It counts as binding. Also on record: The final concentrations were 0.73 μM native pentameric CRP; from tissue. (Size exclusion chromatography separates by hydrodynamic size, large species first.)
Series [4] concerns the target T1, CRP. Description: Immobilised phosphocholine plate assay (125I-CRP binding). Also on record: The final concentrations were 0.73 μM native pentameric CRP; from tissue. Conditions: read-out: IC50 for inhibition of 125I-CRP binding to immobilised phosphocholine. As for the experimental part: (i) Phosphocholine was immobilised on Greiner NHS-activated microtitre plates by incubation with 4-aminophenyl-1-phosphocholine. Remaining active sites were blocked by incubation with 4% w/v BSA in TC buffer (TCB).
(ii) Human CRP at 1 μg/ml in TC buffer was spiked with ^125I-labelled CRP to provide 10^6 cpm/ml.
(iii) Compounds were prepared from up to 10 mM stock solutions by dilution in TC buffer to 0.5 mM (labelled S1). Serial dilutions were prepared by diluting 100 μl ligand solution with 200 μl TC buffer (S2-S10). A ligand-free control was also used (SO, TC only).
(iv) A 100 μl volume of CRP solution was incubated with 10 μl of each compound (S1-S10, SO) for 1 h at room temperature without stirring, to provide final ligand concentrations across the range 45.5 μM-6.9 nM with a ligand:CRP monomer molar ratio of 1151-0.06. In some cases, single fixed ligand concentrations were also assayed in comparison with PC.
(v) A 100 μl volume of each CRP-ligand mixture was added to the plate wells and incubated for 2 h at room temperature. Solutions were then discarded and the plates washed with TCB buffer. Bound radioactivity was measured (1 min counts) using a gamma counter (Perkin Elmer Wizard 2470).
(vi) Data were plotted with Sigmaplot v14 software using the 4-parameter logistic curve y=min+(max−min)/(1+(x/EC50)^−Hill slope) to calculate IC50.

In the case of `O=P(O)(OCCCCCCCCOP(=O)(O)O[C@@H]1CN2CCC1CC2)O[C@@H]1CN2CCC1CC2` [Pk-023, [(3S)-1-azabicyclo[2.2.2]octan-3-yloxy]({[8-({[(3S)-1-azabicyclo[2.2.2]octan-3-yloxy](hydroxy)phosphoryl}oxy)octyl]oxy})phosphinic acid], the half-life in series [1] is approximately 15 min. Further, in series [2], the “Effect on detection of circulating CRP in the Roche assay” value is given as “the same as BPC8”. The Stable to rechromatography entry in series [3] (CRP/ligand complex re-chromatographed in absence of free ligand) was “remained intact and Yes”. Moreover, in series [3] (native CRP pentamer elutes at 13.9 ml), the “CRP elution volume from Superdex 200 after pre-incubation with ligand” value was 12.6 mL. Moreover, in series [4], the IC50 was found to be 150 nM.
